The results in this text go back to patent publication US7595401B2, “Therapeutic compounds and their use in cancer” (Myriad Pharmaceuticals, Inc., priority 2006, dated 2009).

Bounds are passed on as bounds.

The test system of one assay is purified human Hsp90. The assay is described as follows: Binding Assay: fluorescence polarization with BODIPY-labeled geldanamycin. The conditions noted are these: 5 μM compound, BODIPY-GM 10 nM, Hsp90 30 nM. In outline: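 Fluorescence polarization competition with BODIPY-geldanamycin (10 nM final) and human Hsp90 (30 nM final) in HEPES-KOH pH 7.3 buffer with molybdate, NP-40, DTT; 2% DMSO, overnight at room temperature. Read 485/530 nm; percent inhibition from mP normalized to DMSO controls, fluorescent-compound points excluded.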
For orientation: Polarisation of emitted light reports the rotation of a fluorescent probe.
For orientation: % Inhibition means the change of the read-out against control, counted positive when it falls. Read a high % Inhibition as a response far below the control. For `COc1ccc(OC)c(Sc2nc3c(N)ncnc3n2CCc2ccccc2C(F)(F)F)c1` [Example 183, 8-(2,5-Dimethoxy-phenylsulfanyl)-9-[2-(2-trifluoromethyl-phenyl)-ethyl]-9H-purin-6-ylamine], the “% Inhibition at 5 μM Compound Concentration” value (shortened to “% Inhibition”) is on record as 100%.
In the case of `CC(=O)Nc1ccc(Sc2nc3c(N)ncn(CCC4CCN(C=O)CC4)c-3n2)c(Cl)c1` [Example 549, N-[4-({6-Amino-3-[2-(1-formylpiperidin-4-yl)ethyl]-3 H-purin-8-yl}thio)-3-chlorophenyl]acetamide], the “% Inhibition” value is 11.00%.
Turning to `Nc1ncn(CCn2ccnc2)c2nc(Sc3cc4c(cc3Br)OCO4)nc1-2` [Example 380, 8-[(6-Bromo-1,3-benzodioxol-5-yl)thio]-3-[2-(1H-imidazol-1-yl)ethyl]-3H-purin-6-amine], the “% Inhibition” value is 4%.
For the molecule `COc1ccc(OC)c(Sc2nc3c(N)ncnc3n2CCc2ccc(F)cc2F)c1` [Example 121, 9-[2-(2,4-Difluoro-phenyl)-ethyl]-8-(2,5-dimethoxy-phenylsulfanyl)-9H-purine-6-ylamine], the “% Inhibition” value came to 54%.
Regarding `Nc1ncn(CCC2CCCN2C(=O)OCc2ccccc2)c2nc(Sc3cc4c(cc3Br)OCO4)nc1-2` (stereo not shown) [Example 421, Benzyl 2-(2-{6-amino-8-[(6-bromo-1,3-benzodioxol-5-yl)thio]-3H-purin-3-yl}ethyl)pyrrolidine-1-carboxylate], the “% Inhibition” value was determined as 28%.
As to `COc1cc(CCn2c(Sc3cc4c(cc3Br)OCO4)nc3c(N)ncnc32)cc(OC)c1` [Example 195, 8-(6-Bromo-benzo[1,3]dioxol-5-ylsulfanyl)-9-[2-(3,5-dimethoxy-phenyl)-ethyl]-9H-purin-6-ylamine], the “% Inhibition” value was 80%.
As for `CN1CCCC1CCn1cnc(N)c2nc(Sc3cc4c(cc3Br)OCO4)nc1-2` (stereo not shown) [Example 352, 8-[(6-Bromo-1,3-benzodioxol-5-yl)thio]-3-[2-(1-methylpyrrolidin-2-yl)ethyl]-3H-purin-6-amine], the “% Inhibition” value turned out to be 35%.
In the case of `COc1ccc(OC)c(Sc2nc3c(N)ncn(CCc4cc(OC)c(OC)c(OC)c4)c-3n2)c1` [Example 90, 8-(2,5-Dimethoxy-phenylsulfanyl)-3-[2-(3,4,5-trimethoxy-phenyl)-ethyl]-3H-purin-6-ylamine], the “% Inhibition” value is given as 6%.
In the case of `CCn1nnnc1N1CCC(CCn2cnc(N)c3nc(Sc4cc5c(cc4Br)OCO5)nc2-3)CC1` [Example 611, 8-[(6-Bromo-1,3-benzodioxol-5-yl)thio]-3-{2-[1-(1-ethyl-1 H-tetrazol-5-yl)piperidin-4-yl]ethyl}-3 H-purin-6-amine], the “% Inhibition” value came to 22.00%.
As to `CCOC(=O)[C@@H]1C[C@H](CCn2cnc(N)c3nc(Sc4cc5c(cc4Br)OCO5)nc2-3)CCN1C(=O)OC(C)(C)C` (relative stereo) [Example 423, 1-tert-Butyl 2-ethyl cis-4-(2-{6-amino-8-[(6-bromo-1,3-benzodioxol-5-yl)thio]-3H-purin-3-yl}ethyl)piperidine-1,2-dicarboxylate], the “% Inhibition” value worked out at 0%.
Turning to `COc1ccc(OC)c(Sc2nc3c(N)ncn(CCn4cnc5ccccc5c4=O)c-3n2)c1` [Example 272, 3-(2-{6-Amino-8-[(2,5-dimethoxyphenyl)thio]-3H-purin-3-yl}ethyl)quinazolin-4(3 H)-one], the “% Inhibition” value was 16%.
Consider `Nc1ncn(CCc2ccccc2)c2nc(Sc3ccc4c(c3)OC(F)(F)O4)nc1-2` [Example 293, 8-[(2,2-Difluoro-1,3-benzodioxol-5-yl)thio]-3-(2-phenylethyl)-3H-purin-6-amine], for which the “% Inhibition” value came out at 0.0%.
Regarding `COc1ccc(OC)c(Sc2nc3c(N)ncn(CCC4CCN(C(=O)OC(C)(C)C)CC4)c-3n2)c1` [Example 343, tert-Butyl 4-(2-{6-amino-8-[(2,5-dimethoxyphenyl)thio]-3H-purin-3-yl}ethyl)piperidine-1-carboxylate], the “% Inhibition” value came out at 0%.
Take `Nc1ncn(CCc2ccccc2)c2nc(Sc3ccc(Cl)cc3)nc1-2` [Example 18, 8-(4-chloro-phenylsulfanyl)-3-phenethyl-3H-purin-6-ylamine]: the “% Inhibition” value is recorded as 0%.
In the case of `CCOC(=O)N1CCCCC1CCn1cnc(N)c2nc(Sc3cc(OC)ccc3OC)nc1-2` (stereo not shown) [Example 338, 2-{2-[6-amino-8-(2,5-dimethoxy-phenylsulfanyl)-purin-3-yl]-ethyl}-piperidine-1-carboxylic acid ethyl ester], the “% Inhibition” value turned out to be 0%.
Take `COc1ccc(OC)c(Sc2nc3c(N)ncn(CCc4cccc(C(F)(F)F)c4)c-3n2)c1` [Example 80, 8-(2,5-dimethoxy-phenylsulfanyl)-3-[2-(3-trifluoromethyl-phenyl)-ethyl]-3H-purin-6-ylamine]: the “% Inhibition” value is 10%.

Staying with this assay, now noted: BODIPY-GM 10 nM, Hsp90 30 nM.
Usually IC50 stands for the concentration that gives 50% inhibition. With `COc1ccc(OC)c(Sc2nc3c(N)ncnc3n2CCc2ccccc2C(F)(F)F)c1` [Example 183, 8-(2,5-Dimethoxy-phenylsulfanyl)-9-[2-(2-trifluoromethyl-phenyl)-ethyl]-9H-purin-6-ylamine], the half-inhibitory concentration (IC50) came out at 1100 nM.
Regarding `C=Cn1c(S(=O)(=O)c2cc(OC)ccc2OC)nc2c(N)ncnc21` [Example 486, 8-(2,5-dimethoxy-phenylsulfonyl)-9-vinyl-9H -purin-6-ylamine], the IC50 worked out at 7000 nM. Against the preceding molecule, the IC50 is about 6.4-fold higher.
As for `CC1(C(=O)N2CCC(CCn3c(Sc4cc5c(cc4Br)OCO5)nc4c(N)ncnc43)CC2)CC1` [Example 516, 8-[(6-Bromo-1,3-benzodioxol-5-yl)thio]-9-(2-{1-[(1-methylcyclopropyl)carbonyl]piperidin-4-yl}ethyl)-9 H-purin-6-amine], the concentration for half-maximal inhibition (IC50) is 600 nM.
Same read-out and setting: then `COc1ccc(OC)c(Sc2nc3c(N)ncnc3n2CCc2ccc(F)cc2F)c1` [Example 121, 9-[2-(2,4-Difluoro-phenyl)-ethyl]-8-(2,5-dimethoxy-phenylsulfanyl)-9H-purine-6-ylamine], with 520 nM; and `Nc1ncnc2c1nc(Sc1cc3c(cc1Br)OCO3)n2CCc1ccccc1C(F)(F)F` [Example 290, 8-[(6-Bromo-1,3-benzodioxol-5-yl)thio]-9-{2-[2-(trifluoromethyl)phenyl]ethyl}-9H-purin-6-amine], with 70 nM; and `COc1ccc(CN2CCCCC2CCn2c(Sc3cc4c(cc3Br)OCO4)nc3c(N)ncnc32)cc1` (stereo not shown) [Example 590, 8-[(6-Bromo-1,3-benzodioxol-5-yl)thio]-9-{2-[1-(4-methoxybenzyl)piperidin-2-yl]ethyl}-9 H-purin-6-amine], with 500 nM.
On the same count and under the same terms, to `COc1cc(CCn2c(Sc3cc4c(cc3Br)OCO4)nc3c(N)ncnc32)cc(OC)c1` [Example 195, 8-(6-Bromo-benzo[1,3]dioxol-5-ylsulfanyl)-9-[2-(3,5-dimethoxy-phenyl)-ethyl]-9H-purin-6-ylamine] belongs 79 nM.
On the same count and under the same terms, then `COc1cc(Sc2nc3c(N)ncnc3n2CCC2CCN(C=O)CC2)ncn1` [Example 544, 4-(2-{6-Amino-8-[(6-methoxypyrimidin-4-yl)thio]-9 H-purin-9-yl}ethyl)piperidine-1-carbaldehyde], with 1400 nM.
In turn, `Nc1ncnc2c1nc(Sc1cc(OC(F)(F)F)ccc1Cl)n2CCc1ccccc1` [Example 228, 8-{[2-Chloro-5-(trifluoromethoxy)phenyl]thio}-9-(2-phenylethyl)-9H-purin-6-amine] had a 50% inhibitory concentration (IC50) above 8000 nM.
`Nc1ncnc2c1nc(Sc1cc3c(cc1Br)OCO3)n2CCc1ccccc1Br` [Example 149, 8-(6-Bromo-benzo[1,3]dioxol-5-ylsulfanyl)-9-[2-(2-bromo-phenyl)-ethyl]-9H-purin-6-ylamine] came in with an IC50 of 70 nM.
Same read-out and setting: then `COc1ccc(OC)c(Sc2nc3c(N)ncnc3n2CCC2CCOCC2)c1` [Example 348, 8-[(2,5-Dimethoxyphenyl)thio]-9-[2-(tetrahydro-2H-pyran-4-yl)ethyl]-9H-purin-6-amine], with 800 nM; and `COc1ccc(OC)c(Sc2nc3c(N)ncnc3n2CCNC(C)(C)c2ccccn2)c1` [Example 334, 8-[(2,5-Dimethoxyphenyl)thio]-9-{2-[(1-methyl-1-pyridin-2-ylethyl)amino]ethyl}-9H-purin-6-amine], with 2300 nM.
Turning to `COc1ccc(C2(Cn3c(Sc4cc5c(cc4Br)OCO5)nc4c(N)ncnc43)CC2)cc1` [Example 59, 8-(6-Bromo-benzo[1,3]dioxol-5-ylsulfanyl)-9-[1-(4-methoxy-phenyl)-cyclopropylmethyl]-9H-purin-6-ylamine], the half-inhibitory concentration (IC50) was above 25000 nM.
The molecule `COc1cc(Sc2nc3c(N)ncnc3n2CCc2c(Cl)cccc2Cl)c(OC)cc1Cl` [Example 255, 8-[(4-Chloro-2,5-dimethoxyphenyl)thio]-9-[2-(2,6-dichlorophenyl)ethyl]-9H-purin-6-amine] came in with a concentration for half-maximal inhibition (IC50) of 250 nM.
Molecule `CC(=O)N1CCC(CCn2c(Sc3cc4c(cc3C#N)OCO4)nc3c(N)ncnc32)CC1` [Example 620, 6-({9-[2-(1-Acetylpiperidin-4-yl)ethyl]-6-amino-9 H-purin-8-yl}thio)-1,3-benzodioxole-5-carbonitrile] showed an IC50 of 170 nM.
Molecule `COc1cc(Sc2nc3c(N)ncnc3n2CCc2ccccc2)c(Cl)c(OC)c1OC` [Example 286, 8-[(2-Chloro-3,4,5-trimethoxyphenyl)thio]-9-(2-phenylethyl)-9H-purin-6-amine] yielded a half-inhibitory concentration (IC50) of 3000 nM.
`CC(C)NC(=O)N1CCC(CCn2c(Sc3cc4c(cc3Br)OCO4)nc3c(N)ncnc32)CC1` [Example 432, 4-(2-{6-Amino-8-[(6-bromo-1,3-benzodioxol-5-yl)thio]-9H-purin-9-yl}ethyl)-N-isopropylpiperidine-1-carboxamide] yielded an IC50 of 65 nM.
`COc1ccc(OC)c(Sc2nc3c(N)ncn(CCc4ccc(OC)c(OC)c4)c-3n2)c1` [Example 22, 3-[2-(3,4-dimethoxy-phenyl)-ethyl]-8-(2,5-dimethoxy-phenylsulfanyl)-3H-purin-6-ylamine] displayed an IC50 above 10000 nM.
On to `Nc1ncnc2c1nc(Sc1cc3c(cc1Br)OCCO3)n2CCc1ccccc1Cl` [Example 233, 8-[(7-Bromo-2,3-dihydro-1,4-benzodioxin-6-yl)thio]-9-[2-(2-chlorophenyl)ethyl]-9H-purin-6-amine], for which the 50% inhibitory concentration (IC50) came to 500 nM.
As to `COc1ccc(OC)c(Sc2nc3c(N)ncnc3n2CCC2CCCCN2S(C)(=O)=O)c1` (stereo not shown) [Example 371, 8-[(2,5-Dimethoxyphenyl)thio]-9-{2-[1-(methylsulfonyl)piperidin-2-yl]ethyl}-9H-purin-6-amine], the IC50 turned out to be 700 nM.
In turn, `COc1cccc(Sc2nc3c(N)ncn(CCc4ccccc4)c-3n2)c1` [Example 288, 8-[(3-Methoxyphenyl)thio]-3-(2-phenylethyl)-3H-purin-6-amine] came in with an IC50 of 4000 nM. Against the preceding molecule, the IC50 is about 5.7-fold higher.
